Assay results reported in publication PMC6050537, “Inhibition of low-density lipoprotein receptor degradation with a cyclic peptide that disrupts the homodimerization of IDOL E3 ubiquitin ligase” (Chemical Science, 2018).
Residues, ends and D or L forms follow the SMILES beside them.

Assays:
[1] = target: T1, 6× His-tagged, full-length IDOL (Homo sapiens, UniProt Q8WY64); experiment: Surface plasmon resonance (SPR) affinity for IDOL; type: binding; conditions: SPR, immobilized full-length His-IDOL; saturation at highest concentrations not observed; read-out: Kd
T1 construct: Full length IDOL (1–445) was cloned with a TEV cleavable N-terminal 6xHis tag; made in house; host or cells: Spodoptera frugiperda Sf21 (baculovirus, pFastbac1)
T1 sequence (Q8WY64 1-445): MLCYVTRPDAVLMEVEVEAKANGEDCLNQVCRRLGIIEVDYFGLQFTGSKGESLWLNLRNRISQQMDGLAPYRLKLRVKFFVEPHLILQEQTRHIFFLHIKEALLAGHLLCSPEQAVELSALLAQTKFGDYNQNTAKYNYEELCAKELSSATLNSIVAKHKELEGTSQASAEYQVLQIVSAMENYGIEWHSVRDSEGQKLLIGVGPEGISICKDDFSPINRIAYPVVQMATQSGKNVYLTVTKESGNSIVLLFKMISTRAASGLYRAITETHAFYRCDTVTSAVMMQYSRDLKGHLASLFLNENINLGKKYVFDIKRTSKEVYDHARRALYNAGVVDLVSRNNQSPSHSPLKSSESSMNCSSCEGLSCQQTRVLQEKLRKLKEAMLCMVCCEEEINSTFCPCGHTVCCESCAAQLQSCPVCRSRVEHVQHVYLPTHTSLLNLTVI
Text: We initially assessed the affinity of the 6 selected cyclic peptides for IDOL by surface plasmon resonance (SPR). Although saturation at the highest concentrations was not observed, due to hydrophobic effects, Kd values could be determined for five peptides (Table 1). […] The hit rate for our IDOL screen is in line with that for previous SICLOPPS screens.[21],[25] It should be noted that although cyclo-CTIFLL and cyclo-CTLILF contain the same amino acids, changing the order in which these are arranged results in activity loss.
All measurements were performed on a Biacore S200 (GE healthcare) using running buffer 10 mM HEPES, 300 mM NaCl, 1 mM TCEP, 0.05% Tween 20 and 4% DMSO at pH 8.0. In brief, 6× His-tagged, full-length IDOL was immobilized on a NTA-chip (Xantec), to a final level of ∼6000 RU. The chip was pre-loaded with Ni^2+ to facilitate efficient capture of His-tagged protein onto the chip. The activity of the immobilized protein was confirmed using a reference compound.
Supplementary Figure 2. […] Saturation of binding was not observed due to the hydrophobic nature of the peptides
(1 picture or pasted object on this page, not shown here)

RING domain of IDOL = system: T2, RING domain of IDOL; experiment: 1H 15N HSQC NMR binding to RING domain
T2 construct: IDOL RING domain (G356-I445) was expressed as TEV cleavable N-terminal HN6-Lysine-Tag; HN6-Lysine-Tag (TEV-cleavable) (N); made in house; host or cells: E. coli (pET vector)
Text: (§1) The lead candidates, cyclo-CTIFLL and cyclo-CFFLYT, were next analyzed for binding to the RING domain of IDOL by ^1H ^15N HSQC NMR. We also assessed the binding of each peptide to the FERM domain of IDOL as a negative control. […] It should be noted that the 3 residues affected by cyclo-CFFLYT (named RINGPep1) form part of the PPI interface in the crystal structure of the homodimerized RING domains of IDOL (Fig. 1c and ESI Fig. 6 ^†).[15] Furthermore, mutation of V431R coupled with a L433R mutation is known to result in a dimer deficient IDOL.[15]
(§2) ^15N-labeled RING and FERM domains were prepared for NMR experiments by buffer exchange using Amicon Ultra-4 Centrifugal Filter Units with 3 kDa molecular weight cut-off membranes. Buffer conditions for the NMR studies were 50 mM TRIS-d11 pH 7.5, 200 mM NaCl, 3 mM TCEP, 10% (v/v) D2O for the RING domain and 25 mM TRIS-d11, 25 mM NaPi, pH 7.5, 300 mM NaCl, 3 mM TCEP, 10% (v/v) D2O for the FERM domain. The protein concentrations were 80 μM and 70 μM, for the RING and FERM domain respectively. Two-dimensional NMR SOFAST-HMQC titration experiments were carried out on a Bruker 600 MHz spectrometer equipped with a cryoprobe. […]

FERM domain of IDOL = system: T3, FERM domain of IDOL; experiment: 1H 15N HSQC NMR binding to FERM domain (negative control)
T3 construct: made in house; host or cells: E. coli BL21
Text: as §1, §2

[2] = system: IDOL homodimerization (434-IDOL fusion) in IDOL RTHS; experiment: IDOL bacterial reverse two-hybrid system (RTHS) drop-spotting; type: cell-based, E. coli; conditions: SICLOPPS-encoded peptide, IPTG 25 μM plus arabinose
Text: We used a previously reported genetically encoded high-throughput screening platform that combines a bacterial reverse two-hybrid system (RTHS)[21],[23]–[25] with a plasmid-encoded library of 3.2 million cyclic hexapeptides using split intein circular ligation of peptides and proteins (SICLOPPS).[26],[27] We began by constructing a bacterial RTHS for IDOL homodimerization. IDOL is expressed as an N-terminal fusion with the 434 bacteriophage repressor, with the 38 amino acid disordered region of the 434 repressor acting as linker. IDOL homodimerization is expected to bring together two 434 proteins to form a functional repressor that binds to the operator sites engineered onto the E. coli chromosome, and prevent the expression of 3 genes downstream that are required for growth and survival on selective media (Fig. 1a). We verified the formation of a functional repressor and suppression of growth on selective media upon IDOL homodimerization by drop-spotting (Fig. 1b), and by ONPG assay (ESI Fig. 1 ^†) as previously detailed.[21] A SICLOPPS CXXXXX library (where X = any canonical amino acid) was prepared as previously detailed[28] and transformed into the IDOL RTHS prior to plating on selective media. After incubation of the selection plates for 48 h, 480 surviving colonies were picked and individually assessed for arabinose-dependent survival on selective media by drop-spotting. […]

With `CC(C)C[C@@H]1NC(=O)[C@H](Cc2ccccc2)NC(=O)[C@H](Cc2ccccc2)NC(=O)[C@H](CS)NC(=O)[C@H]([C@@H](C)O)NC(=O)[C@H](Cc2ccc(O)cc2)NC1=O` [RINGPep1, cyclo-CFFLYT] (HELM PEPTIDE1{C.F.F.L.Y.T}$PEPTIDE1,PEPTIDE1,1:R1-6:R2$$$V2.0) as the compound, how does the Kd [1] read?
The Kd was 38.5 ± 34.8 µM.

And the “chemical shift changes, RING domain of IDOL” value (RING domain of IDOL)?
Its value is “modest chemical shift changes for 3 amino acids”.

What about the “chemical shift changes, FERM domain of IDOL” value (FERM domain of IDOL) of the same compound?
Its value is “No changes”.

And the “growth of IDOL RTHS on selective media” value [2]?
The value was “restored”.
